Results as given in publication PMC11133798, “Vosoritide treatment for children with hypochondroplasia: a phase 2 trial” (eClinicalMedicine, 2024).

Tests used:
[1] = tested on: children with hypochondroplasia; assay: Phase 2 trial secondary outcomes: bone age, sitting height ratio, arm span minus height; type: in vivo, human
Description: (§1) Secondary outcomes included the change in body proportions as measured by sitting height to standing height ratio and arm span minus standing height, as well as the change in bone age to chronological age ratio after 12 months of therapy. Sitting height was measured three times at each visit using a sitting height table. The average of the three values was used. Sitting height to standing height ratio and arm span minus standing height were standardized for age and sex using available reference data and SDS were calculated.[11]^,[12] Bone age X-rays were read by a single reviewer who was blinded to participant ID, age and time point. Exploratory endpoints included pharmacokinetic parameters, pharmacodynamic markers including collagen X biomarker (CXM) levels and urine cGMP production, and changes in quality of life as measured by the QoLISSY scale.[13] CXM levels in serum were measured in duplicate via an ELISA assay at the Shriners Hospitals for Children in Portland, Oregon as previously described.[14] The average of the two values was used for analysis. Urine samples were obtained for cGMP measurement at baseline and 60, 120, and 240 min after vosoritide injections at the Day 1, Month 6 and Month 12 visits. cGMP levels were assayed at ICON Laboratories (Farmingdale, NY) and were normalized to urine creatinine levels at each time point.
No formal power calculations were done for this proof of principle study. Sample size was determined based on logistical feasibility. Medication adherence was calculated using the number of returned empty vials divided by the number of days of prescribed therapy. Demographics and clinical characteristics were summarized with mean and standard deviation (SD), median and interquartile (IQR) for numerical variables, frequency and proportion for categorical variables. Primary and secondary clinical outcomes were summarized with mean (SD) for the 6-month observation period and the 12-month treatment period. Paired t-tests were carried out to compare the difference between the treatment and observation periods. The corresponding p-value and 95% confidence interval (CI) were reported. Box and whisker plots were used for both primary endpoints (annualized growth velocity and height SDS) and exploratory endpoints (CXM and cGMP) to visualize the trends for the change from baseline to each of the follow-up visits. Safety data (AEs) were summarized as count and percentage of patients as well as the number of total occurrences per each listed AE for the observation period and the treatment period, respectively. As exploratory analyses, the primary endpoints were stratified based on age, baseline growth velocity and baseline height SDS. The summaries of mean (SD) for each visit, mean differences between treatment and observation periods, and the corresponding p-value and 95% CI were all reported. Parent reported quality of life using the QoLISSY scale was also reported with a similar tabular format. Data were analyzed using SAS for Windows version 9.4 (SAS Institute Inc., Cary, NC). A two-sided test with a significance level of 0.05 was used for all hypothesis tests.

[2] = tested on: urine cGMP; assay: Urine cGMP after vosoritide injection, normalized to urine creatinine; type: in vivo, human
Description: as §1

[3] = tested on: children with achondroplasia; details: cited from earlier work
From the text: Vosoritide is a c-type natriuretic peptide (CNP) analog that upon binding its receptor on chondrocytes inhibits the mitogen-activated protein kinase (MAPK) pathway. This pathway is downstream of FGFR3 and is activated in hypochondroplasia and achondroplasia. […] Based on this study and additional trials, vosoritide has now been approved in numerous countries for use in children ... || The standing height SDS increased by 0.37 SD during the year of treatment or 0.41 SD using hypochondroplasia specific growth charts. This is slightly greater than the 0.27 SD increase seen in the Phase 3 study of children with achondroplasia. In prior studies with children with achondroplasia, the increase in growth velocity and gains in height SDS have persisted over multiple years.[16]^,[17] Participants in the current study with positive responses to therapy have been enrolled in an ongoing extension study to assess if this will be true in hypochondroplasia as well. It is reassuring that th ...

[4] = tested on: subjects of trials to date; details: in vivo; cited from earlier work
From the text: We will perform a single arm, open‐ label, Phase I/II study of vosoritide in patients with the selected genetic causes of short stature identified above.

Sequence: PGQEHPNARKYKGANKKGLSKGCFGLKLDRIGSMSGLGC (disulfide) [vosoritide]
- Bone age, Month 12 ([1]; 15 μg/kg/day SC, mean (SD), Day 1 61.42 (30.40), single blinded reader, SD): 71.58 (32.17) months
- Bone age, change during treatment period ([1]; Day 1 to Month 12, mean (95% CI), p<0.0001): 10.17 (7.03, 13.31) months
- Bone age/chronological age, change during treatment period ([1]; Day 1 to Month 12, mean (95% CI), p=0.67): 0.01 (−0.03, 0.05)
- Sitting height ratio unadjusted, change during treatment period ([1]; Day 1 to Month 12, mean (95% CI), observation period −0.001 (−0.003, 0.001)): −0.009 (−0.01, −0.006)
- Arm span minus height unadjusted, change during treatment period ([1]; Day 1 to Month 12, mean (95% CI), observation period −0.66 (−1.72, 0.40)): −0.76 (−1.55, 0.04)
- Bone age/chronological age, Month 12 ([1]; mean (SD), Day 1 0.78 (0.14), SD): 0.79 (0.15)
- Arm span minus height unadjusted, Month 12 ([1]; mean (SD), Day 1 −6.26 (2.83), protocol: measurements in centimeters, SD): −7.01 (3.21)
- Sitting height ratio unadjusted, Month 12 ([1]; sitting height/standing height, mean (SD), Day 1 0.63 (0.02), SD): 0.62 (0.02)
- Average maximum cGMP increase from baseline across visits ([2]; Day 1, Month 6, Month 12 compared): not significantly different at Day 1, Month 6 or Month 12
- Time of peak urine cGMP after administration ([2]; samples at baseline, 60, 120 and 240 min after injection): 2 h
- Time to evident increase in urine cGMP after administration ([2]; samples at baseline, 60, 120 and 240 min after injection, Day 1, Month 6, Month 12): ≤ 1 h
- Adjusted mean difference in annualized growth velocity ([3]; Phase 3, placebo-controlled, children with achondroplasia, 15 μg/kg/day): 1.57 cm/year
- Increase in standing height SDS ([3]; Phase 3 study of children with achondroplasia): 0.27 SD
- Serious hypersensitivity reactions [4]: no serious hypersensitivity reactions
- Subjects having some form of injection site reaction [4]: ~ 85%
- Subjects with an event of hypotension in study 111-205 [4]: 3.3%
- Subjects with hypotension documented on vital sign measurement [4]: ~ 45%
